Data taken from the NIST ThermoML archive (doi:10.1016/j.jct.2019.02.031).
± gives the expanded uncertainty stated by the source.

Assay: xn = mol fraction of the nth substance listed
Details: 101 kPa, Liquid; for viscosity: Falling or rolling sphere viscometry; for mass density: Vibrating tube method

Cn1cc[n+](CCC[N+](C)(C)C)c1.N#C[N-]C#N.N#C[N-]C#N + CC(C)O
Details | mass density [kg/m3] | viscosity [mPa·s]
283.15 K, x1 = 0.1001 | 905.3 ± 2.2 | 12.27 ± 1.2
283.15 K, x1 = 0.2 | 978.56 ± 2.1 | 31.98 ± 3.2
283.15 K, x1 = 0.2999 | 1028.83 ± 2 | 71.59 ± 7.2
283.15 K, x1 = 0.4 | 1065.91 ± 2 | 152.1 ± 16
283.15 K, x1 = 0.5001 | 1094.18 ± 2 | 290.4 ± 33
283.15 K, x1 = 0.5998 | 1114.84 ± 2 | 452 ± 55
283.15 K, x1 = 0.7002 | 1130.38 ± 2 | 742.9 ± 97
283.15 K, x1 = 0.8001 | 1142.95 ± 2 | 1216 ± 170
283.15 K, x1 = 0.8985 | 1153.75 ± 2 | 2301 ± 360
283.15 K, x1 = 1 | 1162.82 ± 2 | 4998 ± 870
288.15 K, x1 = 0.1001 | 901.8 ± 2.2 | 10.23 ± 1
288.15 K, x1 = 0.2 | 975.32 ± 2.1 | 25.55 ± 2.6
288.15 K, x1 = 0.2999 | 1025.72 ± 2 | 54.85 ± 5.5
288.15 K, x1 = 0.4 | 1062.7 ± 2 | 110.5 ± 11
288.15 K, x1 = 0.5001 | 1091.1 ± 2 | 204.6 ± 22
288.15 K, x1 = 0.5998 | 1111.98 ± 2 | 303.9 ± 35
288.15 K, x1 = 0.7002 | 1127.66 ± 2 | 493.5 ± 60
288.15 K, x1 = 0.8001 | 1140.22 ± 2 | 749.8 ± 98
288.15 K, x1 = 0.8985 | 1150.85 ± 2 | 1346 ± 190
288.15 K, x1 = 1 | 1159.76 ± 2 | 2736 ± 430
293.15 K, x1 = 0.1001 | 898.28 ± 2.2 | 8.914 ± 0.9
293.15 K, x1 = 0.2 | 972.09 ± 2.1 | 21.4 ± 2.1
293.15 K, x1 = 0.2999 | 1022.6 ± 2 | 44.54 ± 4.5
293.15 K, x1 = 0.4 | 1059.76 ± 2 | 85.03 ± 8.6
293.15 K, x1 = 0.5001 | 1088.04 ± 2 | 153 ± 16
293.15 K, x1 = 0.5998 | 1108.93 ± 2 | 219.1 ± 24
293.15 K, x1 = 0.7002 | 1124.71 ± 2 | 341.4 ± 40
293.15 K, x1 = 0.8001 | 1137.27 ± 2 | 498.6 ± 61
293.15 K, x1 = 0.8985 | 1147.89 ± 2 | 843.4 ± 110
293.15 K, x1 = 1 | 1156.74 ± 2 | 1608 ± 240
298.15 K, x1 = 0.1001 | 894.74 ± 2.2 | 7.619 ± 0.77
298.15 K, x1 = 0.2 | 968.65 ± 2.1 | 18.02 ± 1.8
298.15 K, x1 = 0.2999 | 1019.48 ± 2 | 35.75 ± 3.6
298.15 K, x1 = 0.4 | 1056.42 ± 2 | 66.38 ± 6.7
298.15 K, x1 = 0.5001 | 1084.68 ± 2 | 116.5 ± 12
298.15 K, x1 = 0.5998 | 1105.58 ± 2 | 163 ± 17
298.15 K, x1 = 0.7002 | 1121.85 ± 2 | 245.1 ± 27
298.15 K, x1 = 0.8001 | 1134.38 ± 2 | 342.8 ± 40
298.15 K, x1 = 0.8985 | 1144.95 ± 2 | 558.1 ± 70
298.15 K, x1 = 1 | 1153.73 ± 2 | 1007 ± 140
303.15 K, x1 = 0.1001 | 891.18 ± 2.2 | 6.585 ± 0.66
303.15 K, x1 = 0.2 | 965.32 ± 2.1 | 15.28 ± 1.5
303.15 K, x1 = 0.2999 | 1016.38 ± 2 | 29.22 ± 2.9
303.15 K, x1 = 0.4 | 1053.15 ± 2 | 53.45 ± 5.4
303.15 K, x1 = 0.5001 | 1081.45 ± 2 | 90.62 ± 9.2
303.15 K, x1 = 0.5998 | 1102.88 ± 2 | 124.3 ± 13
303.15 K, x1 = 0.7002 | 1118.91 ± 2 | 181.3 ± 20
303.15 K, x1 = 0.8001 | 1131.5 ± 2 | 245.7 ± 27
303.15 K, x1 = 0.8985 | 1141.97 ± 2 | 387.2 ± 46
303.15 K, x1 = 1 | 1150.76 ± 2 | 662.9 ± 85
308.15 K, x1 = 0.1001 | 887.61 ± 2.2 | 5.755 ± 0.58
308.15 K, x1 = 0.2 | 962.09 ± 2.1 | 13.11 ± 1.3
308.15 K, x1 = 0.2999 | 1013.25 ± 2 | 24.31 ± 2.4
308.15 K, x1 = 0.4 | 1050.12 ± 2 | 43.61 ± 4.4
308.15 K, x1 = 0.5001 | 1078.35 ± 2 | 71.82 ± 7.2
308.15 K, x1 = 0.5998 | 1099.87 ± 2 | 97.07 ± 9.9
308.15 K, x1 = 0.7002 | 1116.01 ± 2 | 137.7 ± 14
308.15 K, x1 = 0.8001 | 1128.64 ± 2 | 182 ± 20
308.15 K, x1 = 0.8985 | 1139.04 ± 2 | 278.9 ± 32
308.15 K, x1 = 1 | 1147.8 ± 2 | 455.4 ± 55
313.15 K, x1 = 0.1001 | 884.01 ± 2.2 | 5.069 ± 0.51
313.15 K, x1 = 0.2 | 959.16 ± 2.1 | 11.51 ± 1.2
313.15 K, x1 = 0.2999 | 1009.82 ± 2 | 20.53 ± 2.1
313.15 K, x1 = 0.4 | 1046.89 ± 2 | 36.31 ± 3.6
313.15 K, x1 = 0.5001 | 1075.26 ± 2 | 58.15 ± 5.8
313.15 K, x1 = 0.5998 | 1096.85 ± 2 | 77.62 ± 7.8
313.15 K, x1 = 0.7002 | 1113.12 ± 2 | 107.2 ± 11
313.15 K, x1 = 0.8001 | 1125.89 ± 2 | 138.5 ± 14
313.15 K, x1 = 0.8985 | 1136.19 ± 2 | 207.8 ± 23
313.15 K, x1 = 1 | 1144.89 ± 2 | 324.6 ± 37
318.15 K, x1 = 0.1001 | 880.4 ± 2.2 | 4.515 ± 0.46
318.15 K, x1 = 0.2 | 955.64 ± 2.1 | 10.08 ± 1
318.15 K, x1 = 0.2999 | 1006.35 ± 2 | 17.42 ± 1.8
318.15 K, x1 = 0.4 | 1043.68 ± 2 | 30.62 ± 3.1
318.15 K, x1 = 0.5001 | 1072.32 ± 2 | 48.57 ± 4.9
318.15 K, x1 = 0.5998 | 1094.09 ± 2 | 63.07 ± 6.3
318.15 K, x1 = 0.7002 | 1110.26 ± 2 | 85.59 ± 8.7
318.15 K, x1 = 0.8001 | 1123.09 ± 2 | 109 ± 11
318.15 K, x1 = 0.8985 | 1133.33 ± 2 | 160.3 ± 17
318.15 K, x1 = 1 | 1142 ± 2 | 239.7 ± 27
323.15 K, x1 = 0.1001 | 876.76 ± 2.2 | 4.052 ± 0.41
323.15 K, x1 = 0.2 | 952.12 ± 2.1 | 8.828 ± 0.89
323.15 K, x1 = 0.2999 | 1002.86 ± 2 | 15.18 ± 1.5
323.15 K, x1 = 0.4 | 1040.46 ± 2 | 26.11 ± 2.6
323.15 K, x1 = 0.5001 | 1069.5 ± 2 | 40.73 ± 4.1
323.15 K, x1 = 0.5998 | 1091.18 ± 2 | 52.16 ± 5.2
323.15 K, x1 = 0.7002 | 1107.31 ± 2 | 70.03 ± 7
323.15 K, x1 = 0.8001 | 1120.31 ± 2 | 86.93 ± 8.8
323.15 K, x1 = 0.8985 | 1130.45 ± 2 | 125.4 ± 13
323.15 K, x1 = 1 | 1139.11 ± 2 | 181.2 ± 20
328.15 K, x1 = 0.1001 | 873.09 ± 2.2 | 3.672 ± 0.37
328.15 K, x1 = 0.2 | 948.69 ± 2.1 | 7.836 ± 0.79
328.15 K, x1 = 0.2999 | 1000.05 ± 2 | 13.38 ± 1.3
328.15 K, x1 = 0.4 | 1037.56 ± 2 | 22.57 ± 2.3
328.15 K, x1 = 0.5001 | 1066.62 ± 2 | 34.87 ± 3.5
328.15 K, x1 = 0.5998 | 1088.47 ± 2 | 45.82 ± 4.6
328.15 K, x1 = 0.7002 | 1104.35 ± 2 | 58.38 ± 5.9
328.15 K, x1 = 0.8001 | 1117.52 ± 2 | 71.22 ± 7.2
328.15 K, x1 = 0.8985 | 1127.59 ± 2 | 101.4 ± 10
328.15 K, x1 = 1 | 1136.24 ± 2 | 141.1 ± 15
333.15 K, x1 = 0.1001 | 869.4 ± 2.2 | 3.36 ± 0.34
333.15 K, x1 = 0.2 | 945.77 ± 2.1 | 6.989 ± 0.7
333.15 K, x1 = 0.2999 | 996.95 ± 2 | 11.94 ± 1.2
333.15 K, x1 = 0.4 | 1034.62 ± 2 | 19.89 ± 2
333.15 K, x1 = 0.5001 | 1063.89 ± 2 | 29.99 ± 3
333.15 K, x1 = 0.5998 | 1085.59 ± 2 | 39.36 ± 4
333.15 K, x1 = 0.7002 | 1101.65 ± 2 | 49.32 ± 5
333.15 K, x1 = 0.8001 | 1114.82 ± 2 | 59.34 ± 6
333.15 K, x1 = 0.8985 | 1124.75 ± 2 | 83.14 ± 8.4
333.15 K, x1 = 1 | 1133.4 ± 2 | 111.9 ± 12
